In paper PMC6093421, “Identification and characterization of terpene synthase genes accounting for volatile terpene emissions in flowers of Freesia x hybrida” (Journal of Experimental Botany, 2018):

Tested on: T1, FhTPS7
T1 construct: gene TPS7; full-length ORF (570 residues, no transit peptide, TPS-a clade) in pET-32a, E. coli BL21 (DE3), Ni-purified
Assay: GC-MS of hexane-extracted products, Michaelis-Menten non-linear fit
Type: biochemical, Freesia x hybrida
Conditions: 25 mM HEPES pH 7.4, 15 mM MgCl2, 5 mM DTT, 30 °C, 20 min
Source text: GC-MS of hexane-extracted products, Michaelis-Menten non-linear fit on FhTPS7

Row | SMILES | Km (GPP 3–270 μM) | Km (FPP 1–135 μM)
1 | CC(C)=CCC/C(C)=C/COP(=O)(O)OP(=O)(O)O [GPP, geranyl diphosphate] | 3.71 ± 0.19 µM | –
2 | CC(C)=CCC/C(C)=C/CC/C(C)=C/COP(=O)(O)OP(=O)(O)O [FPP, farnesyl diphosphate] | – | 5.01 ± 0.21 µM
